Results from US12708673B2, “Methods and compositions related to peptides and proteins with c-terminal elements” (Sanford Burnham Prebys Medical Discovery Institute, priority 2008, dated 2026).
Entries after “also recorded” stand apart in the source; their conditions may differ.

Key:
cells = assay: Cell internalization of iRGD compared with other RGD peptides; assay type: cell-based
pancreatic tumors = assay: Tumor homing of intravenously injected fluorescamine-labeled iRGD peptide in PDAC mouse; assay type: in vivo; details: intravenous, 4.5 hrs circulation
Experimental: Approximately 200 μg of fluorescamine-labeled iRGD peptide was injected into a pancreatic ductal adenocarcinoma (PDAC) mouse through the tail vein, and was allowed to circulate for 4.5 hrs. The organs were harvested and observed under UV light (upper panel). […] T7 phage displaying iRGD peptides (main panel) or CG7C control peptides (right upper window) were incubated with PPC1 cells cultured on collagen-I coated cover slips for 2 hours at 37° C., stained with anti T7 antibody and a plasma membrane marker, and imaged by a confocal microscope.

PPC-1 cells [1] = assay: T7 phage internalization into PPC-1 (PPC1) cells at 37° C. (acid wash and titration, or anti-T7 staining and confocal imaging); assay type: cell-based, human
Experimental: (§1) FIG. 2A: Binding of T7 phage to prostate cancer cells depends on the display of a C-terminal arginine on the phage particles. PPC1 cells were incubated with T7 bacteriophage displaying derivatives of the G7 (upper graph) or RPARPAR peptide (SEQ ID NO: 2) (lower graph) at 4° C., and the bound phage was quantified by plaque assay. Binding is expressed in fold over of the non-binding G7 control phage. FIG. 2B: Phage displaying C-terminal arginine is internalized into cultured PPC1 cells (arrow, nuclear internalization; arrowhead, cytoplasmic internalization). A panel of T7 phage clones were incubated at 37° C. with PPC1 cells grown on collagen-coated coverslips, stained with anti T7 antibody and imaged by confocal microscopy.
(§2) Phage display. For in vivo phage display, mice were injected intravenously with 10^10 plaque-forming units (pfu) of T7 phage followed by perfusion of the circulatory system and determination of the bound phage in target organs by titration. For cell binding studies on cultured cells (in vitro display) and organ-derived cell suspensions (ex vivo display), the cells were incubated with 10^9 pfu of phage at 4° C., washed, lysed, and quantified by titration. Incubation at 37° C. followed by low pH wash (glycine-HCl, pH 2.5) was used to assess the amount of internalized phage.
(§3) For biopanning and phage binding studies (Hoffman, J. A. et al., 2004), cultured cells were grown to confluence and harvested with trypsin and mouse organs were dissociated using Medimachine (BD Biosciences, San Jose, CA). To measure phage binding, 10^6 cells in binding buffer (DMEM containing 1% BSA) were incubated with 10^9 pfu/ml of T7 phage for 1 hour at 4° C. The cells were washed 4 times with the binding buffer, lysed in LB bacterial growth medium containing 1% NP-40, and titrated. Phage internalization assays used the same procedure, except that the cells were incubated with the phage at 37° C., and that an acidic buffer (500 mM sodium chloride, 0.1 M glycine, 1% BSA, pH 2.5) was used instead of binding buffer in the second wash.
(§4) Centrifugation on a silicone oil cushion (1.03 g/ml) was used to separate unbound phage from cells during time course experiments. Inhibitors of phage binding and internalization (heparin, chondroitin, glycocalyx removal enzymes, endocytosis inhibitors, free peptides, quantum dots and UV-inactivated phage) were added to the cells 20 minutes prior to incubation with phage. Endocytosis inhibitors used in this study were the following: nystatin (50 μg/ml), genistein (100 μg/ml), chlorpromazine (5 μg/ml), 5-(N-ethyl-N-isopropyl) amiloride (100 μM), wortmannin (10 μM).
Immunofluorescence staining. Cultured cells (2×10^5 cells) were grown in 6-well tissue culture plates on collagen-I coated coverslips (BD Biosciences, San Jose, CA) overnight at 37° C. in 5% CO2, and incubated with 10^8 pfu of T7 phage. The cells were fixed in 4% paraformaldehyde or cold (−20° C.) methanol, and stained with antibodies. Nuclei were stained with DAPI or […]. A polyclonal rabbit anti-T7 antibody was generated in-house as described previously (Laakkonen, P. et al. 2002b), except that an additional phage purification step using […] centrifugation was included. Other primary antibodies used were rat anti-mouse CD31 monoclonal antibody (BD Biosciences), rabbit anti-NRP-1, mouse anti-human Lamp-1, mouse anti-human caveolin (Millipore, Temecula, CA), mouse anti-NRP-1 (Miltenyi Biotec Inc., Auburn, CA), mouse anti-human EEA-1 (BD Biosciences, San Jose, CA). The secondary antibodies, Alexa594 goat antibodies to mouse, rat, and rabbit immunoglobulins and Alexa488 donkey anti-rabbit antibody were from Invitrogen (Carlsbad, CA). Cells and tissue sections were examined by confocal microscopy (Fluoview 500, Olympus America Inc., Center Valley, PA).

NRP-1 = target: T1, NRP-1 (Homo sapiens, UniProt O14786); assay: Affinity chromatography of PPC-1 tumor extract on immobilized RPARPAR peptide; assay type: binding; details: 130 kDa protein, MALDI-TOF
T1 construct: from tissue; host or cells: orthotopic PPC-1 prostate tumor xenografts grown in BALB/c nude mice, extracted with n-octyl-beta-D-glucopyranoside
T1 sequence (O14786 22-923): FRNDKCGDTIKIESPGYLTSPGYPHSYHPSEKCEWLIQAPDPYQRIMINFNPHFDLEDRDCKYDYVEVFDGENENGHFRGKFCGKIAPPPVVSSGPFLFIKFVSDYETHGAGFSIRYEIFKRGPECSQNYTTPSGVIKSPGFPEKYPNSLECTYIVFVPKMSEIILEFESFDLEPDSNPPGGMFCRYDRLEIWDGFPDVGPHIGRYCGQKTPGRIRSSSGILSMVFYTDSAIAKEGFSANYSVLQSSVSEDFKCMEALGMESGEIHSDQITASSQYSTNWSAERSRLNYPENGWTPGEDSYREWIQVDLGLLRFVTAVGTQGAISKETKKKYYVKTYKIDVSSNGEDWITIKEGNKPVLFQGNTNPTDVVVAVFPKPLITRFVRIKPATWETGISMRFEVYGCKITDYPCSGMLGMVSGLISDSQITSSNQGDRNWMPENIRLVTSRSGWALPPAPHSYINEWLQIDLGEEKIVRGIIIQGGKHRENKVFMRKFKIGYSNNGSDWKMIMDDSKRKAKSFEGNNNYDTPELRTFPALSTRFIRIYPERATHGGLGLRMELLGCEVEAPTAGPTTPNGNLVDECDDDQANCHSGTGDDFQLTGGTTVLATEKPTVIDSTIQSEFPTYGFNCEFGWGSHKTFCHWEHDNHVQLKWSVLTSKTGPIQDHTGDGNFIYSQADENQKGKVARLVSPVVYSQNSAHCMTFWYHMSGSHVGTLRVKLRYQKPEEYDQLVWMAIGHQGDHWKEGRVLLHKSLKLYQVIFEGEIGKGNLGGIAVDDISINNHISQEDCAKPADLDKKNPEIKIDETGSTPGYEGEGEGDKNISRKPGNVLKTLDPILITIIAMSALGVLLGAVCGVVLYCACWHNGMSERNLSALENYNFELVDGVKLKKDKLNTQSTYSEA
Experimental: (§5) FIGS. 18A-18C show the identification and validation of NRP-1 as the CendR receptor. FIG. 18A: Affinity chromatography of proteins interacting with RPARPAR (SEQ ID NO: 2) peptide. PPC-1 tumor tissue was extracted with a 200 mM glucopyranoside buffer, and the extract was incubated with RPARPAR-coated (SEQ ID NO:2) beads, followed by extensive washes, and elution with 2 mM free RPARPAR (SEQ ID NO:2) peptide. Note appearance of a 130 kDa band, identified by mass spectroscopy as NRP-1, starting in the fraction 3 of the eluate. Upper panel—a silver stained gel, lower panel—an immunoblot with anti-NRP-1 antibody. FIG. 18B: Binding of RPARPAR (SEQ ID NO:2) phage to M21 melanoma cells transiently transfected with wild-type NRP-1 (NRP-1), triple mutant NS346A-E348A-T349A NRP-1 (Mutant NRP-1), or parental pcDNA3.1plasmid (Vector), and to non-transfected M21 cells. FIG. 18C: (c, d), Confocal immunofluorescence images of NRP-1 and RPARPAR (SEQ ID NO:2) T7 phage in PPC-1 cells incubated with phage at 37° C. for 40 minutes (c) and 3 hours (d). The phage and NRP-1 co-localize extensively, but there appears to be a progressive decrease in the overlap (arrowheads in c and d) and appearance of structures positive for the phage only (arrows, d). (e) Immunostaining and confocal imaging of RPARPAR (SEQ ID NO:2) phage and NRP-1 in M21 cells transiently transfected with NRP-1. […]

[2] = tested on: spontaneous pancreatic ductal adenocarcinoma; assay: Spreading of intravenously injected phage into tumor tissue of transgenic mice bearing pancreatic ductal adenocarcinoma; assay type: in vivo, mouse; details: 15 min circulation
Source text: The mice were than perfused with PBS containing 1% BSA, and the tumors were harvested. Cryosections of the tumors were stained with an anti-T7 phage antibody, an anti CD31 antibody, and DAPI. […] Staining is denoted by the bright coloring in both panels of FIG. 9.

PPC-1 cells [3] = assay: Protease treatment of phage followed by phage binding assay on PPC-1 cells at 4° C.; assay type: cell-based, human
Experimental: 5×10^8 phage particles were incubated with indicated volumes of 2.5% trypsin at 37° C. for 20 min, followed by incubation of the phage with 1×10^6 PPC1 cells at 4° C. for 3 hours. Binding is expressed as fold over non-binding G7 control phage (the internalization of which was not affected by the trypsin treatment).
10^9 pfu of RPARPARA (SEQ ID NO:3) phage was treated with indicated amounts of trypsin at 37° C. followed by phage binding assay at 4° C. The data are representative of 4 independent binding experiments.
FIGS. 20A-20C show urokinase dependent CendR peptide. FIG. 20A: The design of a uPA-activatable CendR peptide (uCendR). […] Statistical analysis was performed with ANOVA (b); n=3; error bars indicate s.d.; triple asterisk, p<0.001. Scale bars: 20 μm.
as §3
Protease treatment of phage and qdots. 10^9 phage particles or 50 μl of peptide-coated qdots phage were treated with 50 iu of uPA, 25 μg of crystalline trypsin, 50 iu of thrombin, or 25 μg of collagenase type I (all Sigma, St. Louis, Mo).

PPC-1 cells [4] = assay: T7 phage binding to PPC-1 (PPC1) cells at 4° C., quantified by titration/plaque assay; assay type: cell-based, human
Experimental: as §1, §2, §3, §4

wild-type NRP-1 = target: T2, wild-type NRP-1 (Homo sapiens, UniProt O14786); assay: Phage binding and internalization in M21 melanoma cells transiently transfected with wild-type NRP-1; assay type: cell-based
T2 construct: expressed in transfected cells; host or cells: M21 melanoma cells, transient transfection with lipofectamine; pcDNA3.1(+) construct, gift of Dr. Michael Klagsbrun
T2 sequence (O14786 22-923): as above
Experimental: as §5

In the case of CRGDKGPDC [iRGD peptide], the “Internalization into cells relative to other RGD peptides” value (cells) is reported as “more strongly internalized into cells than any other RGD peptide” and the Tumor homing (pancreatic tumors) is reported as “strong tumor homing; also recorded: homes to pancreatic tumors”.

In the case of RPARPAR (REAGENT) [RPARPAR peptide], the “Effect of unlabelled peptide in binding buffer on binding and internalization of VEGF-C7, enhanced tuftsin and A7R phage” value (PPC-1 cells [1]) is reported as “reduced” and the “Protein released from immobilized peptide by elution with free RPARPAR peptide” value (NRP-1) is reported as “NRP-1”.

CRGDKGPDC [iRGD phage] was tested, and the “Distribution of phage in pancreatic tumor tissue” value [2] was “extensively taken up by the tumor cells forming the pancreatic tumor ducts” and the “Phage internalization into PPC-1 cells (in words)” value (PPC-1 cells [1]; 37° C.) was “internalizes extensively into the tumor cells”.

For RPARPARA [RPARPARA phage], the “Increase of phage binding to cells by trypsin treatment of the phage” value (PPC-1 cells [3]; phage incubated with trypsin at 37° C., binding at 4° C.) was “more than 100 fold”, the “Effect of trypsin treatment of phage on binding (in words)” value (PPC-1 cells [3]; trypsin) was “restored” and the “Phage binding to PPC-1 cells (in words)” value (PPC-1 cells [4]; 4° C.) was “abolished the binding”. The “Cell binding, fold over G7-displaying phage” value (PPC-1 cells [4]; PPC1 cells, without trypsin treatment) was 2.8 fold and the “Phage binding and internalization by M21 cells with forced expression of NRP-1” value (wild-type NRP-1) was “is not internalized”.
